We go through 19 compounds from patent US9376420B2 (YUHAN CORPORATION, priority 2012, dated 2016).

In the assay the target is T1, human LXRβ (Homo sapiens, UniProt P55055).
T1 construct: expressed in transfected cells; host or cells: HEK293 cells (ATCC CRL-1573), transient transfection with pFA-hLXRβ/GAL4 and pUAS
T1 sequence (P55055 222-460 limits assumed): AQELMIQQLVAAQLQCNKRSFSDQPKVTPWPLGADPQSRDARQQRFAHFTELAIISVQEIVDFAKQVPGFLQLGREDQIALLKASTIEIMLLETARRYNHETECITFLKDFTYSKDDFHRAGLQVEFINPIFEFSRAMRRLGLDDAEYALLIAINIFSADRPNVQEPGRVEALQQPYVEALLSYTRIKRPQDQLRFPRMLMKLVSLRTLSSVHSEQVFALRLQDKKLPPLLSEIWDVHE
The assay can be described thus: Assay for Transcriptional Activity of LXRβ (GAL4-hLXRβ LBD luciferase reporter, transient transfection). It is filed as cell-based. The note with it: HEK293 cells transfected with pFA-hLXRβ/GAL4 and pUAS, 24 hours; for Emax: fold value in comparison with the control (DMSO-treated group); for EC50: increase of transcriptional activity of LXRβ, average of three independent tests. From the text:
The ligand-binding domain (LBD) cDNA of human LXRβ was inserted into an expression vector (pFA, Stratagene, USA) site adjacent to the yeast GAL4 transcription factor DNA binding domain to prepare an expression construct (pFA-hLXRβ/GAL4) (Willey et al., Genes & Development 9 1033-1045 (1995). The GAL4-responsive luciferase reporter plasmid, i.e., pUAS (Stratagene, USA), contained five copies of the GAL4 response element placed adjacent to the promoter and the luciferase reporter gene. The pFA-hLXRβ/GAL4 and pUAS were introduced into mammalian cells through transient transfection, followed by measuring the transcriptional activity of LXRβ.
HEK293 cells (human kidney cells, sATCC, CRL-1573) were incubated at a T-75 flask containing a DMEM supplemented with 10% fetal bovine serum (FBS) in a 37° C., until they reach about 70˜80% confluency. The culture media containing the cells was added to each well of a 96-well plate in a density of 5×10^4 cells per well. The pFA-hLXRβ/GAL4 and pUAS was transfected to the cells using a cationic-lipid transfection reagent (Lipofectamine™, Invitrogen), through culturing at 37° C. for 3 hours for transient transfection according to the manufacturer's instruction. The test compounds were dissolved in dimethyl sulfoxide (DMSO) in the concentrations of 50, 30, 10, 3, 1, 0.3, 0.1, 0.03, and 0.01 μM and then cells were treated with the prepared compound-containing solution (100 μl). The cells were incubated at 37° C. for 24 hours. After removal of the medium from each well, the lysis buffer (25 mM Tricine pH7.8, 2 mM DTT, 2 mM EGTA, 10% glycerol, 1% Triton X-100) was added with the amount of 20 μl per each well, and the plate was stirred at room temperature for 15 minutes. The luciferase reagent (prepared by adding 10 ml of the luciferase buffer (Promega) to 1 vial of the luciferase substrate (Promega)) was added to each well with the amount of 100 μl per well, followed by assaying with a luminometer according to the manufacturer's instruction.
The dose-response curve for calculating the EC50 values of the test compounds on the increase of transcriptional activity of LXRβ was prepared using the known LXR agonist (i.e., N-(2,2,2-trifluoro-ethyl)-N-[4-(2,2,2-trifluoro-1-hydroxy-1-trifluoromethyl-ethyl)-phenyl]-benzenesulfonamide) as a positive control and the vehicle (DMSO) as a negative control. The dose-response curve was produced from the 9-point curve having different concentrations at a 1/2 log unit. The EC50 value of a test compound, which is defined as a concentration for initiating the reaction corresponding to the half value between the Top value (i.e., the maximum value) and the Bottom value (baseline), was calculated according to the following equation. Y=Bottom+(Top-Bottom)/(1+10^((log EC50-X)*Hill Slope)).
In the above equation, Y is the observed value; X is the log concentration; Hill Slope is the slope of the curve; and Top and Bottom are the maximum value of test compound and the baseline value, respectively.
The following tables 1 and 2 show the EC50 values of the test compounds measured as in the above. In the tables 1 and 2, each EC50 value represents an average value obtained from three independent tests.

The term EC50 denotes the concentration that produces a half-maximal response. The low end stands for an effect from little substance, the high end for a need for much substance. `COc1ccc(-c2cccc(C3CC(C(F)(F)C(F)(F)F)=NN3c3ccccc3Cl)c2)cc1OC` (centres unmarked) [Example 112, 1-(2-chloro-phenyl)-5-(3′,4′-dimethoxy-biphenyl-3-yl)-3-pentafluoroethyl-4,5-dihydro-1H-pyrazole] came in with an Emax of 57 fold and an EC50 of 8520 nM.

`CS(=O)(=O)c1ccc(-c2cccc(C3CC(C(F)(F)C(F)(F)F)=NN3c3ccc(F)cc3F)c2)cc1C(F)(F)F` (centres unmarked) [Example 69, 1-(2,4-difluoro-phenyl)-5-(4′-methanesulfonyl-3′-trifluoromethyl-biphenyl-3-yl)-3-pentafluoroethyl-4,5-dihydro-1H-pyrazole] came in with an Emax of 83 fold and an EC50 of 1100 nM.

`OC(C1=NN(c2ccccc2Cl)C(c2ccc(-c3cccc(OC(F)(F)F)c3)cc2)C1)(C(F)(F)F)C(F)(F)F` (centres unmarked) [Example 248, 1-(2-chloro-phenyl)-5-[3′-(trifluoromethoxy)-biphenyl-4-yl]-3-[di-(trifluoromethyl)-hydroxy-methyl]-4,5-dihydro-1H-pyrazole] displayed an Emax of 43 fold and an EC50 of 2480 nM.

For the compound `CC(=O)N1CC=C(c2cccc(C3CC(C(O)(C(F)(F)F)C(F)(F)F)=NN3c3ccccc3Cl)c2)CC1` (centres unmarked) [Example 231, 5-[3-(1-acetyl-1,2,3,6-tetrahydropyridin-4-yl)-phenyl]-1-(2-chloro-phenyl)-3-[di-(trifluoromethyl)-hydroxy-methyl]-4,5-dihydro-1H-pyrazole], the Emax was found to be 107 fold and the 50% effective concentration (EC50) stood at 8 nM.

As to `CS(=O)(=O)c1cccc(-c2cc(C3CC(C(F)(F)C(F)(F)F)=NN3c3ccc(F)cc3F)ccn2)c1` (centres unmarked) [Example 188, 1-(2,4-difluoro-phenyl)-5-[2-(3-methanesulfonyl-phenyl)-pyridin-4-yl]-3-pentafluoroethyl-4,5-dihydro-1H-pyrazole], the Emax is given as 107 fold and the EC50 is 304 nM.

Take `CS(=O)(=O)c1ccc(-c2cccc(C3CC(C(F)(F)C(F)(F)F)=NN3c3ccc(Cl)cc3F)c2)cc1` (centres unmarked) [Example 53, 1-(4-chloro-2-fluoro-phenyl)-5-(4′-methanesulfonyl-biphenyl-3-yl)-3-pentafluoroethyl-4,5-dihydro-1H-pyrazole]: the Emax was found to be 61 fold and the midpoint of the response, the EC50, lay at 746 nM.

Compound `CS(=O)(=O)c1cccc(-c2cccc(N3N=C(C(F)(F)C(F)(F)F)CC3c3ccc(F)cc3F)c2)n1` (centres unmarked) [Example 208, 5-(2,4-difluoro-phenyl)-1-[3-(6-methanesulfonyl-pyridin-2-yl)-phenyl]-3-pentafluoroethyl-4,5-dihydro-1H-pyrazole] registered an Emax of 22 fold and an EC50 of 6070 nM.

`OC(C1=NN(c2ccccc2Cl)C(c2ccc(-c3cnc(Cl)nc3)cc2)C1)(C(F)(F)F)C(F)(F)F` (centres unmarked) [Example 281, 1-(2-chloro-phenyl)-5-[4-(2-chloro-pyrimidin-5-yl)-phenyl]-3-[di-(trifluoromethyl)-hydroxy-methyl]-4,5-dihydro-1H-pyrazole] had an Emax of 66 fold and an EC50 of 1790 nM.

Compound `OC(C1=NN(c2ccc(F)cc2F)C(c2ccc(-c3ccccn3)cc2)C1)(C(F)(F)F)C(F)(F)F` (centres unmarked) [Example 385, 1-(2,4-difluoro-phenyl)-5-[4-pyridin-2-yl-phenyl]-3-[di-(trifluoromethyl)-hydroxy-methyl]-4,5-dihydro-1H-pyrazole] came in with an Emax of 60 fold and an EC50 of 771 nM.

In turn, `C[S+]([O-])c1ccc(-c2cccc(C3CC(C(F)(F)C(F)(F)F)=NN3c3ccc(F)cc3F)c2)cc1` (centres unmarked) [Example 52, 1-(2,4-difluoro-phenyl)-5-(4′-methanesulfinyl-biphenyl-3-yl)-3-pentafluoroethyl-4,5-dihydro-1H-pyrazole] returned an Emax of 56 fold and an EC50 of 546 nM.

For `CC(=O)Nc1cccc(-c2ccc(C3CC(C(O)(C(F)(F)F)C(F)(F)F)=NN3c3ccccc3Cl)cc2)c1` (centres unmarked) [Example 309, 5-(3′-acetaminobiphenyl-4-yl)-1-(2-chloro-phenyl)-3-[di-(trifluoromethyl)-hydroxy-methyl]-4,5-dihydro-1H-pyrazole], the Emax was found to be 84 fold and it took 1940 nM to reach a half-maximal effect (EC50).

The compound “1-(2,4-difluoro-phenyl)-5-(4-fluoro-3′-methanesulfonyl-biphenyl-3-yl)-3-pentafluoroethyl-4,5-dihydroxy-1H-pyrazole [Example 141]” displayed an Emax of 127 fold and an EC50 of 18 nM.

Compound `CS(=O)(=O)c1ccc(-c2ccc(F)c(C3CC(C(F)(F)C(F)(F)F)=NN3c3ccc(F)cc3F)c2)cn1` (centres unmarked) [Example 142, 1-(2,4-difluoro-phenyl)-5-[6-fluoro-3-(6-methanesulfonyl-pyridin-3-yl)-phenyl]-3-pentafluoroethyl-4,5-dihydro-1H-pyrazole] came in with an Emax of 73 fold and an EC50 of 181 nM.

`O=C(c1cccs1)N1CC=C(c2cccc(C3CC(C(O)(C(F)(F)F)C(F)(F)F)=NN3c3ccccc3Cl)c2)CC1` (centres unmarked) [Example 234, 1-(2-chloro-phenyl)-5-{3-[1-(thiophene-2-carbonyl)-1,2,3,6-tetrahydropyridin-4-yl]-phenyl}-3-[di-(trifluoromethyl)-hydroxy-methyl]-4,5-dihydro-1H-pyrazole] had an Emax of 49 fold and an EC50 of 13 nM.

`CNCCCS(=O)(=O)c1cccc(-c2ccc(C3CC(C(O)(C(F)(F)F)C(F)(F)F)=NN3c3ccccc3Cl)cc2)c1` (centres unmarked) [Example 334, 1-(2-chloro-phenyl)-5-{3′-[3-(methyl-amino)-propane-1-sulfonyl]-biphenyl-4-yl}-3-[di-(trifluoromethyl)-hydroxy-methyl]-4,5-dihydro-1H-pyrazole] registered an Emax of 102 fold and an EC50 of 295 nM.

In the case of `CS(=O)(=O)c1ccc(-c2ccc(C3CC(C(O)(C(F)(F)F)C(F)(F)F)=NN3c3ccc(F)cc3F)cc2)cc1C(F)(F)F` (centres unmarked) [Example 392, 1-(2,4-difluoro-phenyl)-5-(4′-methanesulfonyl-3′-trifluoromethyl-biphenyl-4-yl)-3-[di-(trifluoromethyl)-hydroxy-methyl]-4,5-dihydro-1H-pyrazole], the Emax was 26 fold and the response was half-maximal at 147 nM (EC50).

`CC(C)S(=O)(=O)N1CCCN(c2ccc(C3CC(C(O)(C(F)(F)F)C(F)(F)F)=NN3c3ccccc3Cl)cc2)CC1` (centres unmarked) [Example 324, 1-(2-chloro-phenyl)-5-[4-(4-isopropylsulfonyl-homopiperazin-1-yl)-phenyl]-3-[di-(trifluoromethyl)-hydroxy-methyl]-4,5-dihydro-1H-pyrazole] registered an Emax of 37 fold and a concentration giving a half-maximal response (EC50) of 3750 nM.

Turning to `COc1ccc(-c2ccc(C3CC(C(O)(C(F)(F)F)C(F)(F)F)=NN3c3ccccc3Cl)cc2F)cc1` (centres unmarked) [Example 363, 1-(2-chloro-phenyl)-5-(2-fluoro-4′-methoxy-biphenyl-4-yl)-3-[di-(trifluoromethyl)-hydroxy-methyl]-4,5-dihydro-1H-pyrazole], the Emax amounted to 50 fold and the midpoint of the response, the EC50, lay at 1210 nM.

Turning to `OCc1ccc(-c2cccc(C3CC(C(F)(F)C(F)(F)F)=NN3c3ccc(F)cc3F)c2)nc1` (centres unmarked) [Example 91, 1-(2,4-difluoro-phenyl)-5-[3-(5-hydroxymethyl-pyridin-2-yl)-phenyl]-3-pentafluoroethyl-4,5-dihydro-1H-pyrazole], the Emax is listed as 44 fold and the midpoint of the response, the EC50, lay at 1460 nM.
